Measured values: patent US20140228349A1, “5,7-SUBSTITUTED-IMIDAZO[1,2-C]PYRIMIDINES” (Array BioPharma Inc., priority 2011, published 2014)

Assays:
Type in all cases: biochemical
JAK1 = biological target: T1, JAK1 (Homo sapiens, UniProt P23458); assay: JAK1 Inhibition Assay (Omnia kinase fluorescence peptide substrate); conditions: averaged IC50 ranges; 40 μM (Km app) or 1 mM ATP, 15 nM JAK1
T1 construct: purchased Invitrogen Corporation, Carlsbad, Calif; IVGN PV4775
How it was run: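 15 nM JAK1, 8 μM Omnia Y12 peptide, 40 μM (Km app) or 1 mM ATP; 25 mM HEPES pH 7.4, 10 mM MgCl2, 2% DMSO. Fluorescence (ex 360/em 485 nm) read every 50 s over 45 min. IC50 by 4-parameter fit of percent of control, top dose 10 μM.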

[1] = test system: Tyk2, JAK1, JAK2 and JAK3; assay: in vitro assays (Examples A, B, C and D) taken together; conditions: Reference Examples; statement in words
Text: The assays described in Examples A, B, C and D for the determination of Tyk2, JAK1, JAK2 and JAK3 kinase activity, respectively, utilized the Omnia® Kinase fluorescence peptide substrate-based technology (Invitrogen). The specific components of the assay mixture are described in Examples A, B, C and D. In these assays, Mg^2+ is chelated upon phosphorylation of the Omnia peptide by the kinase to form a bridge between the chelation-enhanced fluorophore Sox and the phosphate, resulting in an increase in fluorescence emission at 485 nm when excited at […]. The reactions were therefore read at excitation 360 nm and emission was measured at 485 nm every 50 seconds for 45 minutes using a PerkinElmer EnVision Multilabel Plate Reader.
The final buffer conditions for Tyk2, JAK1, JAK2, and JAK3 assays were as follows: 25 mM HEPES, pH 7.4, 10 mM MgCl2, 0.01% Triton X-100 and 1 mM DTT.
Compounds were prepared at 50× the final concentration in DMSO by conducting 3-fold serial dilutions from a 500-μM intermediate dilution to give a 10-point dosing curve having a high dose of 10 μM. Two-μL aliquots of these were transferred to a fresh plate for a ten-fold intermediate dilution with assay buffer. Five-μL aliquots of the diluted compounds were then transferred to 20-μL of assay mixtures described in Examples A, B, C and D for a final concentration of DMSO of 2%. A standard or reference compound was typically included on each assay plate to validate that plate. For each plate, percent of control (POC) values were calculated for each well according to the following equation: […]
Compounds of Formula I were screened for their ability to inhibit Tyk2 using the general enzyme inhibition assay method, in which the assay mixture contained 10 μM (Km app) or 1 mM ATP, 8 μM Omnia® Y12 peptide (Catalog #IVGN KPZ3121C; Invitrogen Corporation, Carlsbad, Calif.) and 2 nM Tyk2 in a total volume of 20 μL. Human Tyk2 kinase domain, comprising amino acids 886 to 1187 with 10 additional histidine residues (histidine tag) on the carboxy terminus, was expressed and purified from bacculovirus in-house at Array BioPharma Inc. (Boulder, Colo.). The histidine tag was cleaved after purification using standard conditions.
Compounds of Formula I were screened for their ability to inhibit JAK1 using the general enzyme inhibition assay method, in which the assay mixture contained 40 μM (Km app) or 1 mM ATP, 8 μM Omnia® Y12 peptide (Catalog #IVGN KPZ3121C; Invitrogen Corporation, Carlsbad, Calif.) and 15 nM JAK1 in a total volume of 20 μL. JAK1 was purchased from Invitrogen Corporation, Carlsbad, Calif. (catalog #IVGN PV4775).
(§1) Compounds of Formula I were screened for their ability to inhibit JAK2 using the general enzyme inhibition assay method, in which the assay mixture contained 25 μM (Km app) or 1 mM ATP, 10 μM Omnia® Y7 peptide (Catalog #IVGN KNZ3071C, Invitrogen Corporation, Carlsbad, Calif.) and 5 nM JAK2 in a total volume of 20 μL. JAK2 was purchased from Invitrogen Corporation, Carlsbad, Calif. (catalog #IVGN PV4288).
as §1, with “JAK3” for “JAK2”, “10” for “25”, “2.5” for “5”, “PV4080).” for “PV4288).”

JAK3 = biological target: T2, JAK3 (Homo sapiens, UniProt P52333); assay: JAK3 Inhibition Assay (Omnia kinase fluorescence peptide substrate); conditions: averaged IC50 ranges; 10 μM (Km app) or 1 mM ATP, 2.5 nM JAK3
T2 construct: purchased Invitrogen Corporation, Carlsbad, Calif; IVGN PV4080
T2 sequence (P52333 1-1124): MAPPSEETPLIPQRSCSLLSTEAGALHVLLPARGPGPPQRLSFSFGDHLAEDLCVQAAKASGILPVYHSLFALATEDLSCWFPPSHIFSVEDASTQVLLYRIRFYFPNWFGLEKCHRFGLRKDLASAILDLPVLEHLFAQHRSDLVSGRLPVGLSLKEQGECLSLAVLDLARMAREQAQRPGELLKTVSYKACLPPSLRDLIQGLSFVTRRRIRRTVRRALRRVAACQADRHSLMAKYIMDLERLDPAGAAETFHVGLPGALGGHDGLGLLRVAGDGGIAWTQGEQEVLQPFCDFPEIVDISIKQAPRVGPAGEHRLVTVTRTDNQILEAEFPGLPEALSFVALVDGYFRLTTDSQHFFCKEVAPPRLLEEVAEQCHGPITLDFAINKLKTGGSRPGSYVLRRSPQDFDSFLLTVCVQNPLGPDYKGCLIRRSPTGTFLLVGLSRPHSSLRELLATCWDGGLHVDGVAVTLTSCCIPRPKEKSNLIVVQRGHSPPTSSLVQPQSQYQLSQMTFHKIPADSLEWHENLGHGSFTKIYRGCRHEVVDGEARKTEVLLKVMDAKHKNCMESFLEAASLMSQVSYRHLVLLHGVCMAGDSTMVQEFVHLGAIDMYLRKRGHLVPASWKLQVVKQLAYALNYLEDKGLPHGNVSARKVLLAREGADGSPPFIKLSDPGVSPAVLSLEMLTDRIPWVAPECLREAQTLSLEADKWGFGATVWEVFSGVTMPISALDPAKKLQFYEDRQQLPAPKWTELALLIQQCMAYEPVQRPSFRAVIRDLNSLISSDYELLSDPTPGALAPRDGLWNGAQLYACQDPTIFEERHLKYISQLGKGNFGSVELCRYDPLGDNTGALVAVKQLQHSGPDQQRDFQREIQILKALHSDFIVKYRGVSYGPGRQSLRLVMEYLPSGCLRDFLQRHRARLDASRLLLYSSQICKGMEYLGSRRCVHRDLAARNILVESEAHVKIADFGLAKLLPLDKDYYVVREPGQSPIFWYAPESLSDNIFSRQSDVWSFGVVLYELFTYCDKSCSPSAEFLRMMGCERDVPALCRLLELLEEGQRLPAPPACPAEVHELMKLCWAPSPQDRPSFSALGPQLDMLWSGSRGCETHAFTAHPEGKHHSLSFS
How it was run: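 IC50 is the concentration giving 50 percent of control on a 4-parameter logistic fit of 10-point, 3-fold dilutions from a 10 μM top dose, at 2% final DMSO. Kinetic Sox fluorescence (360/485 nm) was monitored every 50 s for 45 min. Mix: JAK3 2.5 nM, Omnia Y7 peptide 10 μM, ATP 10 μM (Km app) or 1 mM, in HEPES pH 7.4 buffer with MgCl2, Triton X-100 and DTT.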

Human Tyk2 kinase domain = biological target: T3, Human Tyk2 kinase domain (Homo sapiens, UniProt P29597); assay: Tyk2 Inhibition Assay (Omnia kinase fluorescence peptide substrate); conditions: averaged IC50 ranges; 10 μM (Km app) or 1 mM ATP, 2 nM Tyk2
T3 construct: comprising amino acids 886 to 1187; His10 (10 histidine residues) (C, cleaved yes); made in house
T3 sequence (P29597 886-1187): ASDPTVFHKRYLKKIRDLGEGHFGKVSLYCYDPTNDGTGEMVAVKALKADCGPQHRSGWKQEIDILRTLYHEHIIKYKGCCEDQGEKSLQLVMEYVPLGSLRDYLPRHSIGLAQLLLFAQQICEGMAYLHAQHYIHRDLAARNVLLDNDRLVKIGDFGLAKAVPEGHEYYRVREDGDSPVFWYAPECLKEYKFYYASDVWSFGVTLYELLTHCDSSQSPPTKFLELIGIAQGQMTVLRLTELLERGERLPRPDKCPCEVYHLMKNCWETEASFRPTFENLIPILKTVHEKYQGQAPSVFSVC
How it was run: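 Phosphorylation of 8 μM Omnia Y12 peptide followed kinetically by Sox fluorescence, ex 360/em 485 nm, every 50 s for 45 min. Enzyme: 2 nM Tyk2 kinase domain (aa 886–1187, His tag removed); ATP at 10 μM (Km app) or 1 mM; buffer HEPES pH 7.4 with MgCl2, Triton X-100, DTT. 10-point curves up to 10 μM, IC50 from 4-parameter logistic fit.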

JAK2 = biological target: T4, JAK2 (Homo sapiens, UniProt O60674); assay: JAK2 Inhibition Assay (Omnia kinase fluorescence peptide substrate); conditions: averaged IC50 ranges; 25 μM (Km app) or 1 mM ATP, 5 nM JAK2
T4 construct: purchased Invitrogen Corporation, Carlsbad, Calif; IVGN PV4288
T4 sequence (O60674 whole entry): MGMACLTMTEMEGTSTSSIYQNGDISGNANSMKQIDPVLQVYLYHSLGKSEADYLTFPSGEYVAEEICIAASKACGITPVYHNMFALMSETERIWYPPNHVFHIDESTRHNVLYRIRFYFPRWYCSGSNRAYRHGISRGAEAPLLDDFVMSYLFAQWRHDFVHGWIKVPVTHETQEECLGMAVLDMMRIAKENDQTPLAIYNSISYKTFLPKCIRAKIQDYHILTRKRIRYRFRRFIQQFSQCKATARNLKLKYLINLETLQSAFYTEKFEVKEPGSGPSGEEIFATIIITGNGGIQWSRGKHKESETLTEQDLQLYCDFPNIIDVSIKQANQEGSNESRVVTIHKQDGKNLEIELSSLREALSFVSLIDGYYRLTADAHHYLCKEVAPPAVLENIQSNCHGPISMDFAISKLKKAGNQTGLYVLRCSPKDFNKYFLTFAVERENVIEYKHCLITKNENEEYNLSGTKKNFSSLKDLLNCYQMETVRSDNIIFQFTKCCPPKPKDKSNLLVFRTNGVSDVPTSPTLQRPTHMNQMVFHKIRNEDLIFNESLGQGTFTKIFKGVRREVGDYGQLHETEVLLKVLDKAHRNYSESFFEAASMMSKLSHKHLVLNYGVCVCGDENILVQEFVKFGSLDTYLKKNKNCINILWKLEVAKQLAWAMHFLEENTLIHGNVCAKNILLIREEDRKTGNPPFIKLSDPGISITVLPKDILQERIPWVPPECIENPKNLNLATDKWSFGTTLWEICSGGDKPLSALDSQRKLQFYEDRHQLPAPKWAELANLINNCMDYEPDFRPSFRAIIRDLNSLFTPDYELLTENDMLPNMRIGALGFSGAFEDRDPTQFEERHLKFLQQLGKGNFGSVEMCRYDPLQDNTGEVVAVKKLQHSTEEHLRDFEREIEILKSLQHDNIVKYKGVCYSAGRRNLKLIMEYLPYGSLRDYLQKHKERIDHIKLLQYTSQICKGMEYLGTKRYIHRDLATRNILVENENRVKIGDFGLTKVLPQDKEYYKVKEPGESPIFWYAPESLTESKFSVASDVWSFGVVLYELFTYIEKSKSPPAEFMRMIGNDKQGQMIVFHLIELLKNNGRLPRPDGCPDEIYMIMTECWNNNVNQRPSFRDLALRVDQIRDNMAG

T1 sequence (P23458 whole entry): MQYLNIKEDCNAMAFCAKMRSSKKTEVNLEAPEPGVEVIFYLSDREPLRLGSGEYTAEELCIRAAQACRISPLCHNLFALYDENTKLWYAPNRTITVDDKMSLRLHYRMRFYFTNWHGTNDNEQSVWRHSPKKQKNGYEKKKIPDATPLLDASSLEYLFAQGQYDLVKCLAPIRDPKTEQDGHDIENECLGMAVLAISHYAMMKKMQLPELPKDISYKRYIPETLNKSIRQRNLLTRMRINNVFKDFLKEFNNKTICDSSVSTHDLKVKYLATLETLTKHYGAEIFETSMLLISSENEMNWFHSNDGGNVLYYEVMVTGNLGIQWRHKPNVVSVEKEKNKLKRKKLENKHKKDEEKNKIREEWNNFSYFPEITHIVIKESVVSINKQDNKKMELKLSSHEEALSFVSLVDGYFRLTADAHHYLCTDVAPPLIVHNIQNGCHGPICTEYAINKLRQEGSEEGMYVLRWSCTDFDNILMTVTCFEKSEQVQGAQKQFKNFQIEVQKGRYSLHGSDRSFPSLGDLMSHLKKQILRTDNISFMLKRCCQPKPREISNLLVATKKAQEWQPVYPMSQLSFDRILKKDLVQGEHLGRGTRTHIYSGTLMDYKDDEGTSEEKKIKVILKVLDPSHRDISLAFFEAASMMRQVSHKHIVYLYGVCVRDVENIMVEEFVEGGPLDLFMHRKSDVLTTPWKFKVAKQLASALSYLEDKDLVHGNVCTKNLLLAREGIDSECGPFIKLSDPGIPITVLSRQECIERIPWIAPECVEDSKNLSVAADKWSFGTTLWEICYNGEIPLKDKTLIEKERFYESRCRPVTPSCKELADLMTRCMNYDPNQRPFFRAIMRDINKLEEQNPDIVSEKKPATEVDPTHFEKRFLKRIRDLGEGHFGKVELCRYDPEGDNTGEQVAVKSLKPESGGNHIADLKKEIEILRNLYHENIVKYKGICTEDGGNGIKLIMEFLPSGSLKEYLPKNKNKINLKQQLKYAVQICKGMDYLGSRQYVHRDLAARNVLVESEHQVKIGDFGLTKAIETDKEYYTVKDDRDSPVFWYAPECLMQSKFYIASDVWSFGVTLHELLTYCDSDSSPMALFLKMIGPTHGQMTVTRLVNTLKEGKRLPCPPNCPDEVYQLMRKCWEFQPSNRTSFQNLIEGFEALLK

Compound	IC50 (JAK1) [µM]	activity in the in vitro assays [1]	IC50 (JAK3) [µM]	IC50 (Human Tyk2 kinase domain) [µM]	IC50 (JAK2) [µM]
CN(C)C(=O)N1CC(CCF)(n2cc(-c3nc(-c4cnn(C)c4)cc4nccn34)cn2)C1 [Example 93, 3-(2-fluoroethyl)-N,N-dimethyl-3-(4-(7-(1-methyl-1H-pyrazol-4-yl)imidazo[1,2-c]pyrimidin-5-yl)-1H-pyrazol-1-yl)azetidine-1-carboxamide]	> 1	weakly active	> 1	> 1	> 1
CCN1CC(CCF)(n2cc(-c3nc(-c4cnn(C)c4)cc4nccn34)cn2)C1 [Example 84, 5-(1-(1-ethyl-3-(2-fluoroethyl)azetidin-3-yl)-1H-pyrazol-4-yl)-7-(1-methyl-1H-pyrazol-4-yl)imidazo[1,2-c]pyrimidine]	> 1	weakly active	> 1	> 1	> 1
CCNC(=O)N1CC(CCF)(n2cc(-c3nc(-c4cnn(C)c4)cc4nccn34)cn2)C1 [Example 92, N-ethyl-3-(2-fluoroethyl)-3-(4-(7-(1-methyl-1H-pyrazol-4-yl)imidazo[1,2-c]pyrimidin-5-yl)-1H-pyrazol-1-yl)azetidine-1-carboxamide]	> 1	weakly active	> 1	> 1	> 1
